Test results as given in patent publication US20110124600A1, “Use of Dopamine partial agonists for treament of the restless leg syndrome and corresponding pharmaceutical preparation” (priority 2002, published 2011).
“Also recorded” adds a separate entry of the source.

Experiments:
[1] = test system: restless leg syndrome (RLS) patients; settings: prior art clinical studies, cited from earlier work; for therapeutic effectiveness in RLS: levodopa perorally in the evening, 100 to 600 mg
[2] = test system: restless leg syndrome (RLS) patients; assay: Oral therapy of RLS patients with terguride (patient histories); assay type: in vivo, human
Text: The invention is explained in more detail below based on examples in the form of patient histories.

[3] = cited from earlier work; for plasma half-life: in vivo
[4] = test system: sleeping pattern, REM phases; assay: Effect of oral terguride on sleeping pattern / sleep profile; assay type: in vivo, human; settings: 0.5 mg p.o. up to 50 mg
Description: A dosage of 0.5-2.5 mg is preferred. In the therapy of RLS, terguride in […] dosages apparently acts as a partial agonist, its acting especially on RLS symptoms as a complete agonist, but has little or no effect on the other intact dopaminergic control circuits that control vomiting, orthostasis and the sleep profile. Thus, there is no need to specially change the dosage with a view to side effects. At the same time, however, the desired effect begins very quickly, which is very useful if RLS symptoms occur in the evening, and leads to the patient being unable to fall asleep. Finally, if a longer duration of action is desirable, the dosage of 0.5, 1 mg or even higher can be increased without disturbing the sleep profile.

Structure (SMILES): N[C@@H](Cc1ccc(O)c(O)c1)C(=O)O [Levodopa]
- tolerance / side effects in RLS therapy [1]: generally well tolerated
- therapeutic effectiveness in RLS [1]: brief effectiveness

Structure (SMILES): CCCN[C@H]1CCc2nc(N)sc2C1 [Pramipexol]
- therapeutic effectiveness in RLS [1]: almost complete suppression of symptoms

Structure (SMILES): CCCN(CCC)CCc1cccc2c1CC(=O)N2 [Ropinirole]
- tolerance / side effects in RLS therapy [1]: fewer side effects
- therapeutic effectiveness in RLS [1]: less effective

Structure (SMILES): OC(CCN1CCCCC1)(c1ccccc1)C1CC2C=CC1C2 (stereo not shown) [biperiden]
- effect of previous treatment on RLS ([2]; Patient 2, previous treatment): little effect

Structure (SMILES): CC(C)C[C@H]1C(=O)N2CCC[C@H]2[C@]2(O)O[C@](NC(=O)[C@@H]3C=C4c5cccc6[nH]c(Br)c(c56)C[C@H]4N(C)C3)(C(C)C)C(=O)N12 [bromocriptine]
- share of perorally administered dose reaching systemic blood circulation ([3]; peroral): 6%

Structure (SMILES): C=CCN1C[C@H](C(=O)N(CCCN(C)C)C(=O)NCC)C[C@@H]2c3cccc4[nH]cc(c34)C[C@H]21 [cabergoline]
- plasma half-life [3]: more than 40 hours

Structure (SMILES): NC(=O)N1c2ccccc2C=Cc2ccccc21 [carbamazepine]
- success of previous RLS treatments ([2]; Patient 3): only moderately successful
- therapeutic effectiveness in RLS [1]: especially effective in the control of painful RLS symptoms

Structure (SMILES): NCC1(CC(=O)O)CCCCC1 [gabapentin]
- therapeutic effectiveness in RLS [1]: especially effective in the control of painful RLS symptoms

Structure (SMILES): [Mg+2] [magnesium]
- success of previous RLS treatments ([2]; Patient 3): only moderately successful

Structure (SMILES): CCCN1C[C@H](CSC)C[C@@H]2c3cccc4[nH]cc(c34)C[C@H]21 [pergolide]
- course of RLS after switch from terguride ([2]; Patient 2, later switched to pergolide): no deterioration
- plasma half-life [3]: more than 27 hours

Structure (SMILES): CCN(CC)C(=O)N[C@H]1C[C@@H]2c3cccc4[nH]cc(c34)C[C@H]2N(C)C1 [terguride]
- Epworth scale ([2]; Patient 1, daily dosage 1.5 mg orally): 12
- side effects ([2]; Patient 1, daily dosage 1.5 mg orally, long-term therapy): no side effects
- improvement of RLS ([2]; Patient 2, familial RLS, 1 mg orally): very distinct improvement
- side effects ([2]; Patient 2, 1 mg / 0.5 mg orally): no side effects
- effectiveness in RLS ([2]; Patient 2, further therapy with 0.5 mg): partial effectiveness
- course of RLS in withdrawal trial ([2]; Patient 2, withdrawal of terguride): immediate deterioration
- success of RLS treatment ([2]; Patient 3 (person two), 1 mg orally for 3 months): very good success
- side effects ([2]; Patient 3, 1 mg orally for 3 months): no side effects
- effectiveness on renewed use after stopping when RLS symptoms recurred ([2]; compared with first administration): same effectiveness
- tolerance in treatment of RLS ([2]; general statement): very good tolerance
- effectiveness in oral therapy of RLS ([2]; oral, general statement): exceptionally effective; also recorded: great effectiveness
- adverse effect on REM phases [4]: no adverse effect
- adverse effects on the sleeping pattern [4]: no adverse effects whatsoever

Structure (SMILES): Cc1ccc(-c2nc3ccc(C)cn3c2CC(=O)N(C)C)cc1 [zolpidem]
- success of previous RLS treatments ([2]; Patient 3): only moderately successful
